Marks after values point to notes of the source that are not given here. Where no end group is shown, it is not given here.
Tests used:
[1] = test system: xylene-induced ear swelling in Kunming mice; assay: Xylene-induced ear swelling in mice; assay type: in vivo, mouse; settings: for Inhibition rate: ear swelling vs control
Experimental: Kunming mice were used. The saline group was used as the blank control group, the aspirin group (200 mg/kg) as the positive control group, and the mPEG-HM-1 administration group as the experimental group. Mice were administered once daily for 5 consecutive days. The blank control group was given an equal volume of physiological saline. One hour after the last administration, 0.05 mL of xylene was applied to both sides of the right ear of the mice to cause inflammation, and the left ear was not coated as normal ears. After 2 h, the mice were sacrificed by dislocation, and the ears were cut along the auricle. Ear pieces were taken with a puncher, weighed, and the swelling degree and swelling rate were calculated. Swelling degree=right ear piece weight-left ear piece weight, swelling rate=(swelling degree/left ear piece weight)×100%. Statistical t-test was performed on the test results, *P<0.05 was a significant difference, and **P<0.01 was a very significant difference. See Table 31 to Table 34 for the results.

[2] = test system: adjuvant arthritis (AA) SD rats; assay: Adjuvant arthritis (AA) rat model; assay type: in vivo; settings: for Joint swelling / Left and right paw swelling / Clinical score: AA SD rats; for Clinical score: maximum score 16; for in vivo immune protection effect on adjuvant arthritis model (in words): AA rats, subcutaneous, once every three days, vs model group
[3] = test system: corneal neovascularization in BALB/c mice; assay: Alkali-burn corneal neovascularization in BALB/c mice (CD31 microvessel density); assay type: in vivo, mouse; settings: for inhibition rate of corneal neovascularization: BALB/c mice, alkali burn, intravitreal injection once a day for 1 week; for Inhibition rate: corneal microvessel density vs control; for Inhibition rate / MVD: day 14 after alkali burn, intravitreal once a day for 1 week; for MVD: microvessel density (CD31) of cornea
Excerpt: (1) Preparation of corneal neovascularization model induced by alkali burn in BALB/c mice: mice were randomly grouped and labeled as mPEG-HM-1 experimental group and control group, 5 […] in each group, respectively, was given mPEG-HM-1 and saline by Intravitreal injection after alkali burn, once a day for 1 week. The inflammatory reaction and neovascularization of the cornea were observed under slit lamp microscope at 1 d, 7 d, and 14 d after alkali burn. On the 14th day after alkali burn, the corneal neovascularization was recorded under the slit lamp microscope in the anterior segment of the eye. All the mice were euthanized by cervical dislocation and the eyeballs were removed, washed with saline to rid of blood, and was fixed in 4% paraformaldehyde for 1.5 h, dehydrated in PBS containing 30% sucrose overnight, embedded in OCT frozen section embedding agent, stored in −80° C. refrigerator, frozen section 8 μm, and underwent immunocytochemical detection of CD31 expression. (2) Quantitative measurement of corneal tissue microvessel density: Microvessel density (MVD) is an indicator for evaluating angiogenesis. Vascular endothelial cells were labeled with anti-CD31 antibody by immunohistochemistry, and the number of microvessels per unit area was counted to measure the degree of neovascularization. Standards for counting microvessels: Microscopically, the endothelial cells or cell clusters that are clearly demarcated from adjacent tissues in the corneal tissue and stained brown or brown are counted in the neovascularization. The number of new blood vessels in the whole section was counted under a 10×20 microscope. After the corneal tissue was photographed, the entire corneal tissue area was calculated by image processing software Image J, and the neovascular density of the whole section was determined. The test was repeated 3 times independently. The results obtained by the test were expressed as mean±SD, and a statistical T test was performed. *P<0.05 was a significant difference, and **P<0.01 was a very significant difference.

sarcoma tumor cells = assay: MTT proliferation inhibition, sarcoma cells; assay type: cell-based, human; set-up: concentration or dose not given beside the values; settings: 48 h
Experimental: The activity of mPEG-HM-1 to inhibit the growth of various tumor cells was examined by MTT assay. The tumor cells were cultured to a concentration of 90% or more in a 37° C., 5% CO2 incubator and collected by trypsinization. The cells were resuspended in the culture medium and counted under a microscope to adjust the cell concentration to 2×10^4 cells/mL, the cell suspension was inoculated into a 96-well plate at 100 μL/well and incubated overnight at 37° C. in a 5% CO2 incubator. mPEG-HM-1 was diluted with the culture solution to each predetermined concentration. Docetaxel is diluted to the final concentration with the culture medium. After the cells were fully attached, each dilution was added to a 96-well plate (100 μL/well). The mPEG-HM-1 dilution was added as a drug-administered group, and docetaxel was added as a positive control group, and a culture solution without any drug was used as a negative control group. Incubate for 48 h at 37° C. in a 5% CO2 incubator. 5 mg/mL of MTT was added to a 96-well plate at 20 μL per well, and incubation was continued for 4 hours. The medium was aspirated, dissolved in 150 μL of DMSO per well, and gently mixed by shaking for 10 min. The absorbance was measured at a measurement wavelength of 570 nm and a reference wavelength of 630 nm using a microplate reader, and the rate of growth inhibition (proliferation inhibition, PI) was calculated. The formula is as follows: PI (%)=1−administration group/negative group
The test was repeated 3 times independently, and the results obtained by the test were expressed as mean±SD, and the test results are shown in Table 15 to Table 18.

[4] = test system: neovascularization in rat model of premature retinopathy; assay: Fluctuating-oxygen rat model of premature retinopathy (endothelial nuclei count); assay type: in vivo; settings: for Cell nuclei count: day 14
Experimental: A fluctuating oxygen-induced animal model was used to randomly divide the newborn rats that were naturally delivered on the same day (within 12 hours) into three groups: the oxygenated model group, the oxygenated treatment group, and the normal control group. The oxygenated model group was subdivided into three subgroup models and along with the oxygenated treatment group was placed in a semi-closed oxygen chamber made of plexiglass. The chamber was connected to medical oxygen, and the oxygen analyzer was adjusted to a concentration of 80%±2%. After 24 hours, Nitrogen gas was introduced into the oxygen chamber, and the oxygen concentration was adjusted to 10%±2% and maintained for 24 h. This process was repeated, so that the oxygen concentration in the oxygen chamber is switched between 80% and 10% every 24 hours, and then transferred to the air for 7 days. The oxygen concentration was monitored 8 times a day, and the ambient temperature in the control cabin was 23° C.±2° C. Bedding change, adding food, changing water and replacing mother rats were performed once a day. The normal control group was placed in an animal facility environment. […] The oxygenated therapeutic components were divided into four subgroups, and on the 7th day of modeling, mPEG-SC-HM-1, mPEG2-NHS-HM-1, mPEG-ALD10k-HM-1, and mPEG-bALD-HM-1 were respectively administered by intravitreal injection. Only normal saline was administered to the oxygen model group and the control group. The administrations continued for 1 week. […] After immersion in wax, serial section at thickness of 4 μm was performed, wherein the sections were kept away from the optic disc. The sections are parallel to the sagittal plane of the cornea to the optic disc. Ten sections per eyeball were randomly selected from each eyeball to be stained with hematoxylin and eosin, and the number of vascular endothelial cells that broke through the retinal inner membrane was counted (only the vascular endothelial nucleus closely related to the inner retinal membrane was counted), and the average numbers of endothelial cells per eyeball per slice was counted.

[5] = 10 mg/kg once daily for 5 days, 2 h after xylene
[6] = 20 mg/kg once daily for 5 days, 2 h after xylene
[7] = 40 mg/kg once daily for 5 days, 2 h after xylene
[8] = 20 mg/kg subcutaneous once every three days
[9] = 50 μg intravitreal for 1 week from day 7, vascular endothelial nuclei per slice
[10] = 80 mg/kg once daily for 5 days, 2 h after xylene
[11] = 80 mg/kg subcutaneous once every three days
[12] = 5 mg/kg once daily for 5 days, right minus left ear piece weight 2 h after xylene
[13] = 10 mg/kg subcutaneous once every three days
[14] = 25 μg intravitreal for 1 week from day 7, vascular endothelial nuclei breaking through inner retinal membrane per slice
[15] = 40 mg/kg subcutaneous once every three days

| Substance | Swelling [1, 5] | Inhibition rate ([1]; 10 mg/kg once daily for 5 days) [%] | Swelling [1, 6] | Inhibition rate ([1]; 20 mg/kg once daily for 5 days) [%] | Swelling [1, 7] | Inhibition rate ([1]; 40 mg/kg once daily for 5 days) [%] | Joint swelling [2, 8] [mm] | Left and right paw swelling [2, 8] [mm] | Clinical score [2, 8] | in vivo immune protection effect on adjuvant arthritis model (in words) [2] | inhibition rate of corneal neovascularization [3] [%] | Inhibition rate [3] [%] | MVD [3] | rate of growth inhibition (sarcoma tumor cells) [%] | Cell nuclei count [4, 9] | Swelling [1, 10] | Inhibition rate ([1]; 80 mg/kg once daily for 5 days) [%] | Inhibition rate ([1]; 5 mg/kg once daily for 5 days) [%] | Swelling [1, 12] [mg] | Joint swelling [2, 13] [mm] | other results |
| --- | --- | --- | --- | --- | --- | --- | --- | --- | --- | --- | --- | --- | --- | --- | --- | --- | --- | --- | --- | --- | --- |
| mPEG2-NHS10k-Arg-Gly-Ala-Asp-Arg-Ala-Gly-Gly-Gly-Gly-Arg-Gly-Asp ({mPEG2‑NHS 10 kDa}-RGADRAGGGGRGD) [mPEG2-NHS10k-HM-1] | 5.39 ± 0.14 mg | 12.76 | 4.72 ± 0.72* mg | 23.57 | 4.13 ± 0.35** mg | 33.19 | 0.69 ± 0.19 | 3.80 ± 0.73 | 5.53 ± 1.09 | has the most significant effect | 50.07 | 50.07 | 33.32 ± 3.871** | 43.59 ± 12.39 | 8.786 ± 3.072 | – | – | – | – | – | – |
| mPEG-ALD40k-Arg-Gly-Ala-Asp-Arg-Ala-Gly-Gly-Gly-Gly-Arg-Gly-Asp ({mPEG‑ALD 40 kDa}-RGADRAGGGGRGD) [mPEG-ALD40k-HM-1] | – | – | – | – | 5.41 ± 0.16 mg | 11.53 | – | – | – | – | – | 46.11 | 35.96 ± 6.862** | 45.93 ± 10.77 | – | 4.77 ± 0.62* mg | 22.02 | – | – | – | Swelling ([1]; 160 mg/kg once daily for 5 days, 2 h after xylene): 4.16 ± 0.25** mg; Inhibition rate ([1]; 160 mg/kg once daily for 5 days): 32.09%; Joint swelling [2, 11]: 0.73 ± 0.17 mm; Left and right paw swelling [2, 11]: 3.80 ± 0.65 mm; Clinical score [2, 11]: 5.76 ± 1.03; Cell nuclei count ([4]; 200 μg intravitreal for 1 week from day 7, vascular endothelial nuclei per slice): 8.673 ± 2.756 |
| mPEG-SC10k-Arg-Gly-Ala-Asp-Arg-Ala-Gly-Gly-Gly-Gly-Arg-Gly-Asp ({mPEG‑SC 10 kDa}-RGADRAGGGGRGD) [mPEG-SC10k-HM-1] | 5.49 ± 0.23 mg | 10.55 | 4.83 ± 0.32* mg | 21.37 | 3.98 ± 0.21** mg | 35.20 | 0.70 ± 0.18 | 3.81 ± 0.71 | 5.52 ± 1.07 | has the most significant effect | 52.17 | 52.17 | 31.92 ± 3.648** | 45.49 ± 11.89 | 8.528 ± 3.109 | – | – | – | – | – | – |
| mPEG-ALD5k-Arg-Gly-Ala-Asp-Arg-Ala-Gly-Gly-Gly-Gly-Arg-Gly-Asp ({mPEG‑ALD 5 kDa}-RGADRAGGGGRGD) [mPEG-ALD5k-HM-1] | 4.80 ± 0.35* mg | 21.52 | 4.16 ± 0.14** mg | 32.10 | – | – | – | – | – | – | – | 45.09 | 36.64 ± 3.909* | 38.41 ± 12.53 | – | – | – | 10.17 | 5.50 ± 0.21 | 0.72 ± 0.17 | Left and right paw swelling [2, 13]: 3.92 ± 0.67 mm; Clinical score [2, 13]: 5.91 ± 1.09; Cell nuclei count [4, 14]: 8.927 ± 2.902 |
| mPEG2-NHS5k-Arg-Gly-Ala-Asp-Arg-Ala-Gly-Gly-Gly-Gly-Arg-Gly-Asp ({mPEG2‑NHS 5 kDa}-RGADRAGGGGRGD) [mPEG2-NHS5k-HM-1] | 4.94 ± 0.28* mg | 20.05 | 4.31 ± 0.20** mg | 30.23 | – | – | – | – | – | – | – | 40.13 | 39.95 ± 3.985* | 38.41 ± 11.10 | – | – | – | 10.02 | 5.56 ± 0.19 | 0.73 ± 0.16 | Left and right paw swelling [2, 13]: 3.91 ± 0.73 mm; Clinical score [2, 13]: 5.92 ± 1.04; Cell nuclei count [4, 14]: 9.212 ± 3.134 |
| mPEG-ALD20k-Arg-Gly-Ala-Asp-Arg-Ala-Gly-Gly-Gly-Gly-Arg-Gly-Asp ({mPEG‑ALD 20 kDa}-RGADRAGGGGRGD) [mPEG-ALD20k-HM-1] | – | – | 4.89 ± 0.20 mg | 20.10 | 4.52 ± 0.32* mg | 26.19 | – | – | – | – | – | 48.04 | 34.67 ± 6.953** | 50.96 ± 11.68 | – | 3.70 ± 0.20** mg | 39.47 | – | – | – | inhibition rate of ear swelling ([1]; 80 mg/kg, once daily for 5 days, mice): 37.76%; Joint swelling [2, 15]: 0.76 ± 0.21 mm; Left and right paw swelling [2, 15]: 3.77 ± 0.62 mm; Clinical score [2, 15]: 5.67 ± 1.08; Cell nuclei count ([4]; 100 μg intravitreal for 1 week from day 7, vascular endothelial nuclei per slice): 7.036 ± 1.315; vascular endothelial cell nuclei count ([4]; neonatal rats, 100 μg intravitreal, 1 week): 7.036±1.315 |

Source: patent US10869931B2, “Polyethylene glycol-modified angiogenesis inhibitor HM-1 and application thereof” (NANJING ANJI BIOLOGICAL TECHNOLOGY CO.,LTD, priority 2016, dated 2020)
